# Activity calls are given as the source filed them.
# Experiments:
# Mus musculus [1] = species on record: Mus musculus; assay: Anti-hypersensitive activity in mouse model of spared nerve injury-induced acute neuropathic pain assessed as reduction in GluA1 surface levels in spinal cord at 20 uM, IT by immunoblot analysis; assay type: functional, organism-based
# Mus musculus [2] = species on record: Mus musculus; assay: Binding affinity towards PICK1 in lumbar spinal cord lysates of mouse at 20 uM, IT([…]) and measured by immunoblot analysis; assay type: subcellular
# Mus musculus [3] = species on record: Mus musculus; assay: Disruption of PICK1-GluA2 interaction in lumbar spinal cord lysates of male C57BL/6 mouse assessed as reduction in GluA2 surface levels at 20 uM, IT and measured by immunoblot analysis; assay type: subcellular
# [4] = (§1) Binding affinity towards PICK1 in rat hippocampal neurons incubated for 1 hr and measured by DID staining method; assay type: cell-based; details: hippocampal neurone
# [5] = Inhibition of macroscopic off-rate of bound PICK1 in Tac-YFP-Dat C24 expressing human HEK293 supported cell membrane sheets; assay type: cell membranes
# Mus musculus [6] = species on record: Mus musculus; assay: Disruption of PICK1-GluA2 interaction in lumbar spinal cord lysates of male C57BL/6 mouse at 20 uM, IT and measured by co-immunoprecipitation assay; assay type: subcellular
# Mus musculus [7] = species on record: Mus musculus; assay: Anti-hypersensitive activity in mouse model of spared nerve injury-induced acute neuropathic pain assessed as reduction in GluA2 surface levels in spinal cord at 20 uM, IT by immunoblot analysis; assay type: functional, organism-based
# Mus musculus [8] = species on record: Mus musculus; assay: Disruption of PICK1-GluA2 interaction in lumbar spinal cord lysates of male C57BL/6 mouse assessed as reduction in GluA2 S880 phosphorylation levels at 20 uM, IT and measured by immunoblot analysis; assay type: subcellular
# Mus musculus [9] = species on record: Mus musculus; assay: Anti-hypersensitive activity in mouse model of spared nerve injury-induced acute neuropathic pain assessed as increase in paw withdrawal threshold at 20 uM, IT by von Frey test; assay type: functional, organism-based
# [10] = Stability of compound in PBS; assay type: physicochemical; details: buffer
# Mus musculus [11] = species on record: Mus musculus; assay: Disruption of PICK1-GluA2 interaction in lumbar spinal cord lysates of male C57BL/6 mouse assessed as reduction in GluA1 surface levels at 20 uM, IT and measured by immunoblot analysis; assay type: subcellular
# Mus musculus [12] = assay: Anti-hypersensitive activity in mouse model of spared nerve injury-induced chronic neuropathic pain assessed as increase in paw withdrawal threshold at 30 mg/kg, ip after 2 hrs by von Frey test; assay type: functional, organism-based
# Mus musculus [13] = assay: Anti-hypersensitive activity in C57BL/6J mouse model of spared nerve injury-induced acute neuropathic pain assessed as increase in ipsilateral paw mechanical threshold at 10 micromol/kg, sc; assay type: functional, organism-based; details: dose 10.0 µmol/kg
# [14] = Binding affinity towards PICK1 PDZ domain (unknown origin) measured by fluorescence polarization assay; parameters: species or system Homo sapiens
# Rattus norvegicus [15] = assay: Attenuation of cocaine reinstatement in 7 day cocaine treated rat assessed as reduction in sucrose seeking behaviour at 3 nmol/g, iv of TAMRA labeled compound treated for 45 mins prior to administration of cocaine injection; assay type: functional, organism-based
# Mus musculus [16] = species on record: Mus musculus; assay: Anti-hypersensitive activity in mouse model of spared nerve injury-induced chronic neuropathic pain assessed as increase in paw withdrawal threshold at 20 uM, IT after 28 days by von Frey test; assay type: functional, organism-based; details: time 28.0 day
# Mus musculus [17] = species on record: Mus musculus; assay: Antiallodynic activity in C57BL6/N mouse model of CFA-induced inflammatory pain assessed as increase in paw withdrawal threshold at 20 uM, IT by von Frey test; assay type: functional, organism-based
# Rattus norvegicus [18] = assay: Attenuation of cocaine reinstatement in 7 day cocaine treated rat assessed as reduction in cocaine seeking behaviour at 0.3 to 3 nmol/g, iv of TAMRA labeled compound treated for 45 mins prior to administration of cocaine injection; assay type: functional, organism-based; details: dose 0.3-3 nmol/g
# Mus musculus [19] = species on record: Mus musculus; assay: Anti-hypersensitive activity in mouse model of spared nerve injury-induced chronic neuropathic pain assessed as increase in paw withdrawal threshold at 20 uM, IT after 14 days by von Frey test; assay type: functional, organism-based; details: time 14.0 day
# Hippocampal neurone = assay: as §1; assay type: cell-based
# Rattus norvegicus [20] = assay: Attenuation of cocaine reinstatement in 7 day cocaine treated rat assessed as effect on inactive lever response at 0.3 to 3 nmol/g, iv of TAMRA labeled compound treated for 45 mins prior to administration of cocaine injection; assay type: functional, organism-based; details: dose 0.3-3 nmol/g
# [21] = Inhibition of recombinant rat SNAP-543-labeled PICK1 binding to Tac-YFP-Dat C24 expressing human HEK293 supported cell membrane sheets and measured by fluorescence polarization competition binding assay; assay type: cell membranes
# [22] = Stability of compound in human plasma; assay type: ADME, cell-free
# Rattus norvegicus [23] = assay: Attenuation of cocaine reinstatement in 7 day cocaine treated rat assessed as effect on locomotor activity at 3 nmol/g, iv of TAMRA labeled compound treated for 45 mins prior to administration of cocaine injection; assay type: functional, organism-based
SMILES,Activity (Mus musculus [1]),Activity (Mus musculus [2]),Activity (Mus musculus [3]),IC50 [5],Activity (Mus musculus [6]),Activity (Mus musculus [7]),Activity (Mus musculus [8]),Activity (Mus musculus [9]),Stability [10],Activity (Mus musculus [11]),Activity (Mus musculus [13]),further results
CC(C)C[C@H](NC(=O)[C@H](Cc1c[nH]c2ccccc12)NC(=O)[C@H](Cc1cnc[nH]1)NC(=O)[C@H](CCCNC(=N)N)NC(=O)[C@H](CCCNC(=N)N)NC(=O)[C@H](CCCNC(=N)N)NC(=O)[C@H](CCC(N)=O)NC(=O)[C@H](CCCNC(=N)N)NC(=O)[C@H](CCCNC(=N)N)NC(=O)[C@H](CCCCN)NC(=O)[C@H](CCCCN)NC(=O)[C@H](CCCNC(=N)N)NC(=O)CNC(=O)[C@@H](N)Cc1ccc(O)cc1)C(=O)N[C@@H](CCCCN)C(=O)N[C@H](C(=O)O)C(C)C,inactive,inactive,inactive,Not Active,inactive,inactive,inactive,inactive,Unstable,inactive,–,IC50 [4]: Active
NCC1(CC(=O)O)CCCCC1,–,–,–,–,–,–,–,–,–,–,–,Activity (Mus musculus [12]): Active
CC[C@H](C)[C@H](NC(=O)[C@H](CCCCN)NC(=O)CNC(=O)[C@H](CC(C)C)NC(=O)[C@H](CC(C)C)NC(=O)[C@H](Cc1ccc(O)cc1)NC(=O)CNC(=O)[C@H](C)NC(=O)[C@H](CO)NC(=O)[C@H](CC(N)=O)NC(=O)[C@H](CC(C)C)NC(=O)[C@@H](NC(=O)[C@H](Cc1c[nH]c2ccccc12)NC(=O)CN)[C@@H](C)O)C(=O)N[C@@H](CC(N)=O)C(=O)N[C@@H](CC(C)C)C(=O)N[C@@H](CCCCN)C(=O)N[C@@H](C)C(=O)N[C@@H](CC(C)C)C(=O)N[C@@H](C)C(=O)N[C@@H](C)C(=O)N[C@@H](CC(C)C)C(=O)N[C@@H](C)C(=O)N[C@@H](CCCCN)C(=O)N[C@@H](CCCCN)C(=O)N[C@H](C(=O)N[C@@H](CC(C)C)C(=O)N(CCOCCOCCC(=O)N[C@@H](Cc1cnc[nH]1)C(=O)N[C@@H](Cc1c[nH]c2ccccc12)C(=O)N[C@@H](CC(C)C)C(=O)N[C@@H](CCCCN)C(=O)N[C@H](C(=O)O)C(C)C)CCOCCOCCC(=O)N[C@@H](Cc1cnc[nH]1)C(=O)N[C@@H](Cc1c[nH]c2ccccc12)C(=O)N[C@@H](CC(C)C)C(=O)N[C@@H](CCCCN)C(=O)N[C@H](C(=O)O)C(C)C)[C@@H](C)CC,–,–,–,–,–,–,–,–,–,–,Active,Ki [14]: 7.8 nM
CC(C)C[C@H](NC(=O)[C@H](Cc1c[nH]c2ccccc12)NC(=O)[C@@H](N)Cc1cnc[nH]1)C(=O)N[C@@H](CCCCN)C(=O)N[C@H](C(=O)O)C(C)C,–,–,–,Not Active,–,–,–,–,–,–,–,–
CC(C)C[C@H](NC(=O)[C@H](Cc1c[nH]c2ccccc12)NC(=O)[C@H](Cc1cnc[nH]1)NC(=O)CCOCCOCCN(CCOCCOCCC(=O)N[C@@H](Cc1cnc[nH]1)C(=O)N[C@@H](Cc1c[nH]c2ccccc12)C(=O)N[C@@H](CC(C)C)C(=O)N[C@@H](CCCCN)C(=O)N[C@H](C(=O)O)C(C)C)C(=O)[C@H](CCCNC(=N)N)NC(=O)[C@H](CCCNC(=N)N)NC(=O)[C@H](CCCNC(=N)N)NC(=O)[C@H](CCCNC(=N)N)NC(=O)[C@H](CCCNC(=N)N)NC(=O)[C@H](CCCNC(=N)N)NC(=O)[C@H](CCCCN)NC(=O)[C@H](CCCCN)NC(=O)[C@H](CCCNC(=N)N)NC(=O)CNC(=O)[C@@H](N)Cc1ccc(O)cc1)C(=O)N[C@@H](CCCCN)C(=O)N[C@H](C(=O)O)C(C)C,Active,Active,inactive,–,Active,Active,Active,Active,Stable,inactive,Active,Activity (Rattus norvegicus [15]): inactive; Activity (Mus musculus [16]): Active; Activity (Mus musculus [17]): Active; Activity (Rattus norvegicus [18]): Active; Activity (Mus musculus [19]): Active; Activity (Hippocampal neurone): Active; IC50 ([5]; read-out: IC50): 1170 nM; Activity (Rattus norvegicus [20]): inactive; IC50 [21]: 7 nM; Stability [22]: Stable; Activity (Rattus norvegicus [23]): inactive

# — ChEMBL document CHEMBL5050841, “Inhibitors of pick1 and uses thereof” (2021)
